Assay [1] relates to human cancer cells, including homozygously p53 gene-deleted. Briefly: toxicity of subject peptides to human cancer cells. The format is cell-based. The procedure:
The following experiment was performed to compare effectiveness of subject peptides having the leader sequence attached to the amino terminal end.

A further assay has as its system TUC-3 cells. Briefly: TUC-3 transformed pancreatic cancer cells in culture treated with synthetic peptide. The format is cell-based, rat. The note with it: for EFFECT: Table 3, leader is SEQ ID NO:4. The source says:
(§1) A line of rat pancreatic acinar cells (BMRPA.430) grown in culture was transformed with K-ras.

The subject of assay [2] is human breast carcinoma cell lines. Briefly: human breast carcinoma cell lines treated with synthetic peptide. The following applies: 100 μg/ml. In kind it is cell-based.
A further assay relates to Melanoma cells. Briefly: Melanoma cells treated with synthetic peptide. The note with it: 100 μg/ml. The format is cell-based.
Assay [3] concerns non-malignant and non-transformed human breast cell lines. Briefly: non-malignant, non-transformed human breast cell lines treated with synthetic peptide. The format is cell-based. The note with it: 100 μg/ml.
The test system of a further assay is BMRPA.430 cells. Briefly: normal pancreatic acinar cells BMRPA.430 in culture treated with synthetic peptide. The format is cell-based, rat. The following applies: 50 μg/ml; normal cell line.
Source text: as §1

The test system of the next assay is HeLa cells. Briefly: HeLa cells treated with synthetic peptide. In kind it is cell-based. The note with it: 100 μg/ml.
The subject of assay [4] is non-malignant and non-transformed fibroblast cell lines. Briefly: non-malignant, non-transformed fibroblast cell lines treated with synthetic peptide. The following applies: 100 μg/ml. In kind it is cell-based, human.
In the next assay the test system is cultured cancer cells. Briefly: cultured cancer cells treated with peptide without leader or with leader alone. In kind it is cell-based. The note with it: 100 μg/ml. The procedure: When cultured cancer cells were treated with a peptide with the primary structure of SEQ ID NO:1 without a leader sequence attached, at a dosage of 100 μg/ml, the cells were unaffected. Similarly, when cultured cancer cells were treated with leader sequence SEQ ID NO:4, the presently preferred leader sequence, at the same dosage, the cell were also unaffected.

The test system of assay [5] is malignant or normal cells. Briefly: control peptide with leader on malignant or normal cells. In kind it is cell-based. The following applies: leader SEQ ID NO:4 at carboxy terminal end of control peptide.
Source text: When the leader sequence set forth in SEQ ID NO:4 was positioned at the carboxy terminal end of PNC29, a control protein having the following amino acid sequence: [sequence]
The test system of assay [6] is pancreatic carcinoma cells BMRPA1. TUC-3. Briefly: s.c. BMRPA1.TUC-3 xenotransplant in Nu/Nu mice, established tumors, osmotic pump delivery (Example II). The format is in vivo. As for the experimental part: Nu/Nu mice (Harlan Laboratories, Indianapolis, Ind., n=10) and weighing 20-22 g, were xenotransplanted subcutaneously (s.c.) with live pancreatic carcinoma cells BMRPA1. TUC-3 (1×10^6 cells/mouse) in the left hind region.
Each group was implanted s.c. with Alzet® osmotic pumps to deliver in a constant rate and over a defined period of 14 days a total volume of 0.095 ml volume of normal saline containing the respective peptide at a concentration of 20 mg/mouse. […] The pumps were filled according to the manufacturers guidelines and under sterile conditions The pumps were implanted s.c. on the left flank of the anaesthetized mice by creating a pocket underneath the mouse skin into which the tiny pumps were inserted. Each pocket was closed with a simple suture. From their inside chamber the pumps delivered continuously 0.25 μl/hr into each mouse. The mice were observed until they had recovered from the surgery when they were returned to the isolation ward of the animal facility. Since the animals were Nu/Nu mice and, thus, immuno-compromised they are highly susceptible when exposed to pathogens. Surgery and all preceding and post-surgical treatments were therefore performed in a sterile hood environment.

With “PNC 21: p53 seq. 12-20 (PPLSQETFS) (SEQ ID NO: 2)-Leader; leader is KKWKMRRNQFWVKVQRG (SEQ ID NO:4) (PPLSQETFSKKWKMRRNQFWVKVQRG; amino acid residue 12-20 of human p53 protein; penetration leader sequence from antennapedia)”, in [1], the “toxicity to a wide variety of human cancer cells” value is “strongly toxic”. Also, the EFFECT entry with TUC-3 cells is listed as “Cytotoxic”.
As for “PNC 27: p53 seq. 12-26 (PPLSQETFSDLWKLL) (SEQ ID NO: 1)-Leader; leader is KKWKMRRNQFWVKVQRG (SEQ ID NO:4) (PPLSQETFSDLWKLLKKWKMRRNQFWVKVQRG; amino acid residue 12-26 of human p53 protein; penetration leader sequence from antennapedia)”, the “cell death in human breast carcinoma cell lines” value in [2] is on record as “cell death was observed”. Besides, the “cell death in Melanoma cells” value in the assay on Melanoma cells is given as “cell death was observed”. For the same substance, the “effect on non-malignant and non-transformed human breast cell lines” value in assay [3] is “no effect”. Moreover, in the assay on BMRPA.430 cells, the “effect on BMRPA.430 cells” value is “not affected”. In assay [1], the “toxicity to a wide variety of human cancer cells” value is given as “strongly toxic”. Moreover, the “cell death in HeLa cells” value in the assay on HeLa cells is on record as “cell death was observed”. Also, the “death of TUC-3 cells” value in the assay on TUC-3 cells (100 μg/ml) is given as “died within three to four days”. Moreover, the EFFECT result with TUC-3 cells is “Cytotoxic”. The “effect on non-malignant and non-transformed fibroblast cell lines” value in assay [4] is “no effect”.
Consider “SEQ ID NO:4: penetratin leader sequence from antennapedia protein alone, KKWKMRRNQFWVKVQRG (penetration leader sequence from antennapedia)”, for which the “effect on cultured cancer cells” value in the assay on cultured cancer cells is recorded as “unaffected”.
On to “PNC-29: control peptide of similar size, amino acid sequence MPFSTGKRIMLGE (SEQ ID NO: 25); in b48 with leader SEQ ID NO:4 at carboxy end (used as a control)”, for which the “effect on malignant or normal cells” value in assay [5] is listed as “no effect”. In addition, the “effect on normal or tumor cells” value in assay [6] (control peptide, s.c. pump, 20 mg/mouse) is given as “no effect”. Moreover, the tumor diameter in assay [6] (over the 2-week treatment and follow-up period) fell in the range of 10 to 16 mm. In addition, the tumor growth result in assay [6] (s.c. pump over 14 days, 20 mg/mouse, tumors 3 to 6 mm at start) is listed as “kept growing at a continuous rate”.
As for “SEQ ID NO:1 without a leader sequence attached: peptide PPLSQETFSDLWKLL (SEQ ID NO:1) without a leader sequence attached (amino acid residue 12-26 of human p53 protein)”, in the assay on cultured cancer cells, the “effect on cultured cancer cells” value is “unaffected”.

The values above are taken from US7883888B2, “Peptides selectively lethal to malignant and transformed mammalian cells” (The Research Foundation —The State University of New York, priority 2000, dated 2011).
